# Source: ChEMBL document CHEMBL1201862, “PubChem BioAssay data set” (2004)
# The source made the active and inactive calls. Cut-off read from the data, not from the text of the source: actives have a measured IC50 and inactives only a lower limit.
# Target: Envelope glycoprotein gp160 (Human immunodeficiency virus 1, UniProt Q6QLK5)
# Assay: cell-free HIV fusion peptide-binding blockers – biochemical, uHTS, fluorescence dequenching, […] (AID 1986)
# Chain of Envelope glycoprotein gp160 (Q6QLK5 whole entry, the tested form may be a part): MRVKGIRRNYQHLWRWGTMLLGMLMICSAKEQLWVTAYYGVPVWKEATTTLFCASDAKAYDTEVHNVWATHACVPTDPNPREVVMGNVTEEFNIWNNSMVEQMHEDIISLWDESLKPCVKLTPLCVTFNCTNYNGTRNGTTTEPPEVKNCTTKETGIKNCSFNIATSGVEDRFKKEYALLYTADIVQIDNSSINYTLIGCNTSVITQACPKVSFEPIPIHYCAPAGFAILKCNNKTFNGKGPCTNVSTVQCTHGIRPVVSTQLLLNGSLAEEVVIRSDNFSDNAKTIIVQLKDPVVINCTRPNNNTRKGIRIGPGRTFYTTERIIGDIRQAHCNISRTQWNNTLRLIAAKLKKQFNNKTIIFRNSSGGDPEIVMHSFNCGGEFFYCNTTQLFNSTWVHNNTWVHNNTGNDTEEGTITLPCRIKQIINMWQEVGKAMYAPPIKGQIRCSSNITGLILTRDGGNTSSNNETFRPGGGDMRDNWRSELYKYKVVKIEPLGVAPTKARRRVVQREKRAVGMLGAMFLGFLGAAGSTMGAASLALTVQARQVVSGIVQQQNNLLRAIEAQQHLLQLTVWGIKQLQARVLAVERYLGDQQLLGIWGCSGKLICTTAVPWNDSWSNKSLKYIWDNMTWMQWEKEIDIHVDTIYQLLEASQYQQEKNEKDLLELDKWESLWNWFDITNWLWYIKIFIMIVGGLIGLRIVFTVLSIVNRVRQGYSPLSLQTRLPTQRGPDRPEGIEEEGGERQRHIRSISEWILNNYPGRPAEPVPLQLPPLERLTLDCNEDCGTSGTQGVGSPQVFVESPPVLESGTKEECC
compound,measurement,value
O=S(=O)(Nc1nc(-c2sccc2Cl)cs1)c1cc(Cl)ccc1Cl,IC50,8.21 µM (active)
